One compound from patent US20230381248A1, “METHOD FOR TREATING AND/OR PREVENTING ATOPY AND ALLERGIC DISEASES BY USING BACTERIA OR COMPOSITIONS HAVING 7 ALPHA-DEHYDROXYLASE ACTIVITY, AND/OR BILE ACID RECEPTORS FXR AND/OR TGR5 AGONISTS” (NATIONAL TAIWAN UNIVERSITY HOSPITAL, priority 2022, published 2023) can be followed below.

The test system of experiment [1] is PMN-MDSC and regulatory T-cell (Treg). As to the kind of experiment: Induction of immune-regulatory cells by FxR and TGR5 agonist pre-treatment in the OVA allergic airway disease model, flow cytometry. Format: in vivo, BALB/c mice. Particulars: oral gavage 30 mg/kg/day twice a week from 3 w/o; BALF, PB, BM, Spl after aerosol OVA challenge; vs vehicle control. On the technique in general: A flow cytometer gives signals particle by particle.
Method: (§1) The model uses ovalbumin (OVA) as the allergen to induce allergic airway inflammation of the mice. Briefly, allergen sensitization was induced in 5 w/o BALB/c mice by two intraperitoneal injection (i.p.) of 50 μg ovalbumin (OVA) plus 2 mg alum at 10-14-day interval. One week after the second OVA i.p. sensitization, 30-min aerosol 5% OVA inhalation challenge (ih) was performed for 3 consecutive days.
(§2) OVA-induced allergic airway disease was induced in 5 w/o BALB/c mice according to the protocol as depicted. […] Age- and sex-matched control mice were given the vehicle containing methyl cellulose.
The effects of FXR and TGR5 signaling in inducing both innate and adaptive immune-regulatory cells (i.e., PMN-MDSC and Treg) are investigated in this example. Mice were pre-treated by FxR and TGR5 agonists, followed by allergen sensitization and induction of allergic airway disease as depicted in FIG. 6. […] BALF represents bronchoalveolar lavage fluid, PB represents peripheral blood, BM represents bone marrow, Spl represents spleen. […] FoxP3 is an intracellular specific marker of regulatory T-cell and acts as a major regulator in the development and function of regulatory T-cell. **P<0.01; ***P<0.001, comparison was made by analysis of variance (ANOVA).

Experiment [2] deals with OVA-induced allergic airway disease. As to the kind of experiment: Severity of OVA-induced allergic airway disease after FxR and TGR5 agonist pre-treatment. Format: in vivo, BALB/c mice. As to conditions: oral gavage 30 mg/kg/day twice a week from 3 w/o.
Method: as §1, §2
The effects of FxR and TGR5 signaling in alleviating the severity of OVA-induced allergic airway disease are investigated in this example Mice were pre-treated by FxR and TGR5 agonists, followed by sensitization and asthmatic response of mice as depicted in FIG. 6. One day after the 3rd aerosol OVA challenge, sera and bronchoalveolar lavage fluids (BALF) were collected and parameters reflecting the severity of allergic inflammation were tested. […] Neg Ctrl represents healthy control. N=12-14 mice/group.

As for `CC[C@H]1[C@@H](O)[C@@H]2[C@H](C[C@H](O)[C@]3(C)[C@@H]([C@H](C)C[C@H](C)C(=O)O)CC[C@@H]23)[C@@]2(C)CC[C@@H](O)C[C@@H]12` [TGR5 agonist, 6-EMCA], in experiment [1], the “expansion of adaptive immune-regulatory cell, Treg” value is reported as “can induce the expansion” and the “expansion of innate immune-regulatory cells, PMN-MDSC” value is “can induce the expansion”. Also, the “four parameters indicative of allergic airway disease severity (seral OVA-specific IgE, BALF leukocyte counts, BALF IL-5, airway resistance to methacholine)” value in experiment [2] (one day after 3rd aerosol OVA challenge) is reported as “mitigated”. Besides, in experiment [2] (vs control mice receiving vehicle, N=12-14 mice/group), the airway disease severity entry is given as “significantly milder airway disease”.
